Drawing on US12544374B2, “AZA-quinoline compounds and uses thereof” (Novartis AG, priority 2019, dated 2026), this text covers IC50 for 22 molecules.

Assay [1] addresses wild type PRC2 (wtPRC2) complex (Homo sapiens (Human), UniProt Q15910). In words: EZH2 LC-MS assay (LC-Qualified). The class given is biochemical. The settings on record: (a) LC-Qualified assay. How it is done:
Representative compounds of the invention were serially and separately diluted 3-fold in DMSO to obtain twelve concentrations. […] Solutions (6 μL) of 80 nM wild type PRC2 (wtPRC2) complex and 60 μM SAM in reaction buffer (20 mM Tris, pH 8.0, 0.1% BSA, 0.01% Triton, 0.5 mM DTT) were added to the wells that were then incubated with the test compound for 20 min. A 6 μL solution of 3 μM of the substrate peptide H3K27me1 (histone H3[21-44]-K27me1-biotin) and 6 μM regulatory peptide H3K27me3 (histone H3[21-44]-K27me3) in reaction buffer was added to initiate each reaction. […] The data were fit to a dose response equation using the program Helios to get the IC50 values of the test compound.

The target in the next assay is EZH2 (Homo sapiens (Human), UniProt Q15910). In words: ELISA (H3K27 methylation) assay in G401 cell. The class given is cell-based. The following applies: (b) ELISA Qualified assay, 48 h. How it is done: Representative compounds of the invention were serially and separately diluted 3-fold in DO to obtain a total of eight or twelve concentrations. Then the compounds were added to G401 cell cultured in 384-well plate at 1:500 dilution to obtain the highest concentration of 20 μM. The cells were further cultured for 48 h before ELISA procedure.
ELISA protocol: Cell lysates were transferred to the wells of a 384-well plate and the final volume was adjusted to 50 μL per well with PBS. The plate was sealed, centrifuged at 2,000 rpm for 2 min and incubated at 4° C. for about 16 h. The plate was washed with TBST buffer (1×TBS (10×TBS: 24.2 g Tris (Sigma, T6066), 80 g NaCl (Sigma, S3014) to 1 L of water and adjust pH to 7.6 with HCl) with 0.1% Tween-20). Blocking buffer (TBST, 5% BSA; 50 μL per well) was added and the plate was incubated for 1 h at rt. The blocking buffer was removed and primary antibody was added (30 μL per well). […] The primary antibody was incubated in the plate at rt for 1 h. The wells were washed with TBST and incubated with secondary antibody for 1 h at rt.
After 1 h of incubation at rt, the wells were washed with TBST. […] The signal was read using a PerkinElmer Envision Reader. The H3K27 methylation readouts were normalized using H3 signal and then percentage inhibition was calculated against the samples treated with DO. The data were fit to a dose response curve using the program Helios to get the IC50 values of the test compound.
(In general: An ELISA detects its analyte on a solid surface through an enzyme-linked reagent.)

Chain of EZH2 (Q15910 whole entry): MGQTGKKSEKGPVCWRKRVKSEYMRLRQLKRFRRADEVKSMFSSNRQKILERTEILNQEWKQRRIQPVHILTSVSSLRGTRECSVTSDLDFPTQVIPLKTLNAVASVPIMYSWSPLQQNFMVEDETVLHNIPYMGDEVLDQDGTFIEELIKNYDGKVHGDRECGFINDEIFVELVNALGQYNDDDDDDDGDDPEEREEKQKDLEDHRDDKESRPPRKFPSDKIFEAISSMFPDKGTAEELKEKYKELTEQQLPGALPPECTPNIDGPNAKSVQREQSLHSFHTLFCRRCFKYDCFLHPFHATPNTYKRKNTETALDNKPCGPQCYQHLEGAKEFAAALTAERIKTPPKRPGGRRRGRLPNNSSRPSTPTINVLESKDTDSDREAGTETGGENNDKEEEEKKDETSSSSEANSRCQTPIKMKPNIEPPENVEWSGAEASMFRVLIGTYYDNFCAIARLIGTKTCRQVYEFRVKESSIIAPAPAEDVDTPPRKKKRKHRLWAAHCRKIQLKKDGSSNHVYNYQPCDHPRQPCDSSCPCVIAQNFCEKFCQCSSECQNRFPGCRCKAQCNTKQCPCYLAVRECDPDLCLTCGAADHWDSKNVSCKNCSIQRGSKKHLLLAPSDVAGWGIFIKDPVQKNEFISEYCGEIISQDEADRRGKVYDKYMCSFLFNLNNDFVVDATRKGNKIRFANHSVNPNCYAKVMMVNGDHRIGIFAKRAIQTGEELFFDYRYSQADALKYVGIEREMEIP
Chain of EZH2 (Q15022 whole entry partner): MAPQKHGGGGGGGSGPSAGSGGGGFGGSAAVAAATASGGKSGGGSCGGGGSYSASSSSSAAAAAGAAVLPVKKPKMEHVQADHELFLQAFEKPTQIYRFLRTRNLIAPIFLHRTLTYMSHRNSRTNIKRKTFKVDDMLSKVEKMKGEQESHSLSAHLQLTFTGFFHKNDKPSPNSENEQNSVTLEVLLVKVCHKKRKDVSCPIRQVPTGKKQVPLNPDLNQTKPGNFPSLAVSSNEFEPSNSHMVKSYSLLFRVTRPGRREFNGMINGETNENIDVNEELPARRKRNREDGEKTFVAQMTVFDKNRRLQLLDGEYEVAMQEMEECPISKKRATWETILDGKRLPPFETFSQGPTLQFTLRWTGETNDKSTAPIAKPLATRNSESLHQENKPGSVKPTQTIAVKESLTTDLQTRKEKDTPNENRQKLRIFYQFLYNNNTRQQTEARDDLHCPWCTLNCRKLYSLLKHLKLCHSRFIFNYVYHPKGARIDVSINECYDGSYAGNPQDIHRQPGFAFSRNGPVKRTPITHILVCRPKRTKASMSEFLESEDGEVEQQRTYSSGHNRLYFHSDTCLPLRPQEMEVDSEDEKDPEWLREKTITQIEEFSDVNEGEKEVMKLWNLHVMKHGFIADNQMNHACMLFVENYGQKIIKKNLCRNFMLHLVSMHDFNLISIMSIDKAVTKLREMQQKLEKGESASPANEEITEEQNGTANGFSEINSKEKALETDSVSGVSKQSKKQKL
Chain of EZH2 (O75530 whole entry partner): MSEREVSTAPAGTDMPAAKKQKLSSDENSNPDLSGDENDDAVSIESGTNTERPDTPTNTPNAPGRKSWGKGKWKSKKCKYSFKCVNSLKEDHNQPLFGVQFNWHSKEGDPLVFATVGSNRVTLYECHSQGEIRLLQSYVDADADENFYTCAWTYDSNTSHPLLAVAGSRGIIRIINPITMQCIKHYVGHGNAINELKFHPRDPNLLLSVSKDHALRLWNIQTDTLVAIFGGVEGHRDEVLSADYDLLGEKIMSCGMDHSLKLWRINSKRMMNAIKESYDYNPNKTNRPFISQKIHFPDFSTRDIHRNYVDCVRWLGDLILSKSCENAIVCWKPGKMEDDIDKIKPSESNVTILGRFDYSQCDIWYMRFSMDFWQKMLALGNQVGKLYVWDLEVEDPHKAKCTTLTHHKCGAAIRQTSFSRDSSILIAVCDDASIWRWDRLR
Chain of EZH2 (Q09028 whole entry partner): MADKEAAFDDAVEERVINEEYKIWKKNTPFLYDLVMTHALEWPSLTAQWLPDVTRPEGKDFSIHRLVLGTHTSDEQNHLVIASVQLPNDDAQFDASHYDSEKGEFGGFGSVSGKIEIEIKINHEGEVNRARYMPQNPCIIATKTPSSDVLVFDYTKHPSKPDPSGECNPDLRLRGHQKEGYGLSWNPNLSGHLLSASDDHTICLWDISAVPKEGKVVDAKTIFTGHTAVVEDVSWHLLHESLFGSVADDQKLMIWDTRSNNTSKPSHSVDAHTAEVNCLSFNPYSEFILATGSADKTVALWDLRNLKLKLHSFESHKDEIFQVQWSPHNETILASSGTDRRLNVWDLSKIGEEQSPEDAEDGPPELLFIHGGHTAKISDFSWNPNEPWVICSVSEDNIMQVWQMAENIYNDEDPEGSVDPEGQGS
Chain of wild type PRC2 (wtPRC2) complex (Q15910 whole entry): as the sequence (Q15910 whole entry) above
Chain of wild type PRC2 (wtPRC2) complex (Q15022 whole entry partner): as the sequence (Q15022 whole entry partner) above
Chain of wild type PRC2 (wtPRC2) complex (O75530 whole entry partner): as the sequence (O75530 whole entry partner) above
Chain of wild type PRC2 (wtPRC2) complex (Q09028 whole entry partner): as the sequence (Q09028 whole entry partner) above
Chain of wild type PRC2 (wtPRC2) complex (Q6ZN18 whole entry partner): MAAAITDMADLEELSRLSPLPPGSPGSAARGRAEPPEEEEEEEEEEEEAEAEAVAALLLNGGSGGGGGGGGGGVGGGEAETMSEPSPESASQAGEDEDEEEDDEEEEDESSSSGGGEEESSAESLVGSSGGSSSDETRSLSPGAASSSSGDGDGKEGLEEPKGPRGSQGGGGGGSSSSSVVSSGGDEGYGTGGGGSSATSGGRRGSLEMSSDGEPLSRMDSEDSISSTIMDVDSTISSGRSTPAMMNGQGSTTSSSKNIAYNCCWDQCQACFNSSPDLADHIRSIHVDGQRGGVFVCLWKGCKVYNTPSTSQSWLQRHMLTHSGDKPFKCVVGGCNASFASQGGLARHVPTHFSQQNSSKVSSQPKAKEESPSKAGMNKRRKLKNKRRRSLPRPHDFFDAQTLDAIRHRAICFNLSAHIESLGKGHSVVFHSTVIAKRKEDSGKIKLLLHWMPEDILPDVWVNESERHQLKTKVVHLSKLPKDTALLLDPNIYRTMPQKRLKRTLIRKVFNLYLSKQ

Usually IC50 stands for the point on the concentration scale where inhibition reaches its midpoint. A higher IC50 goes with weaker potency. In the case of `CS(=O)(=O)N1CCN(Cc2cnc(NC[C@H]3CC[C@H](Nc4ccc5ccnc(Cl)c5n4)CC3)nc2)CC1` [Compound C26, 8-chloro-N-((1,4-trans)-4-(((5-((4-(methylsulfonyl)piperazin-1-yl)methyl)pyrimidin-2-yl)amino)methyl)cyclohexyl)-1,7-naphthyridin-2-amine], the half-inhibitory concentration (IC50) came out at 0.012 µM in assay [1] and 0.006 µM against EZH2.
With `OC1CN(Cc2cnc(NC[C@H]3CC[C@H](Nc4ccc5ccnc(Cl)c5n4)CC3)nc2)C1` [Compound C29, 1-((2-((((1,4-trans)-4-((8-chloro-1,7-naphthyridin-2-yl)amino)cyclohexyl)methyl)amino)pyrimidin-5-yl)methyl)azetidin-3-ol], the IC50 in assay [1] is 0.02 µM; on EZH2, 0.022 µM.
On to `O=S1(=O)CCN(Cc2cnc(NC[C@H]3CC[C@H](Nc4ccc5ccnc(Cl)c5n4)CC3)nc2)CC1` [Compound C30, 4-((2-((((1,4-trans)-4-((8-chloro-1,7-naphthyridin-2-yl)amino)cyclohexyl)methyl)amino)pyrimidin-5-yl)methyl)thiomorpholine 1,1-dioxide], for which the IC50 in assay [1] stood at 0.017 µM; at EZH2, 0.007 µM.
On to `Clc1nccc2ccc(N[C@H]3CC[C@H](CNc4ncc(CNCC5COC5)cn4)CC3)nc12` [Compound C31, 8-chloro-N-((1,4-trans)-4-(((5-(((oxetan-3-ylmethyl)amino)methyl)pyrimidin-2-yl)amino)methyl)cyclohexyl)-1,7-naphthyridin-2-amine], for which the IC50 in assay [1] stood at 0.026 µM; at EZH2, 0.06 µM.
For the molecule `COC1CC(NCc2cnc(NC[C@H]3CC[C@H](Nc4ccc5ccnc(Cl)c5n4)CC3)nc2)C1` (stereo partly drawn) [Compound C32, 8-chloro-N-((1,4-trans)-4-(((5-(((3-methoxycyclobutyl)amino)methyl)pyrimidin-2-yl)amino)methyl)cyclohexyl)-1,7-naphthyridin-2-amine], the IC50 in assay [1] turned out to be 0.079 µM; at EZH2 it was 0.498 µM.
For the molecule `OC1CC(NCc2cnc(NC[C@H]3CC[C@H](Nc4ccc5ccnc(Cl)c5n4)CC3)nc2)C1` (stereo partly drawn) [Compound C33, 3-(((2-((((1,4-trans)-4-((8-chloro-1,7-naphthyridin-2-yl)amino)cyclohexyl)methyl)amino)pyrimidin-5-yl)methyl)amino)cyclobutan-1-ol], the figures for the IC50 (in assay [1]; against EZH2) were 0.042 µM and 0.044 µM, respectively.
Regarding `O=C(Cc1cnc(NC[C@H]2CC[C@H](Nc3ccc4ccnc(Cl)c4n3)CC2)nc1)N1CC(O)C1` [Compound C38, 2-(2-((((1,4-trans)-4-((8-chloro-1,7-naphthyridin-2-yl)amino)cyclohexyl)methyl)amino)pyrimidin-5-yl)-1-(3-hydroxyazetidin-1-yl)ethan-1-one], the IC50 in assay [1] worked out at 0.024 µM; against EZH2, 0.029 µM.
With `CN(C)C1CCN(C(=O)Cc2cnc(NC[C@H]3CC[C@H](Nc4ccc5ccnc(Cl)c5n4)CC3)nc2)C1` (stereo partly drawn) [Compound C39, 2-(2-((((1,4-trans)-4-((8-chloro-1,7-naphthyridin-2-yl)amino)cyclohexyl)methyl)amino)pyrimidin-5-yl)-1-(3-(dimethylamino)pyrrolidin-1-yl)ethan-1-one], the results for the IC50 (in assay [1]; against EZH2) were 0.081 µM and 0.02 µM, respectively.
In the case of `O=C(Cc1cnc(NC[C@H]2CC[C@H](Nc3ccc4ccnc(Cl)c4n3)CC2)nc1)N1CCN(CCO)CC1` [Compound C40, 2-(2-((((1,4-trans)-4-((8-chloro-1,7-naphthyridin-2-yl)amino)cyclohexyl)methyl)amino)pyrimidin-5-yl)-1-(4-(2-hydroxyethyl)piperazin-1-yl)ethan-1-one], the IC50 in assay [1] was determined as 0.046 µM; against EZH2, 0.028 µM.
For `O=C(Cc1cnc(NC[C@H]2CC[C@H](Nc3ccc4ccnc(Cl)c4n3)CC2)nc1)N1CCNCC1` [Compound C41, 2-(2-((((1,4-trans)-4-((8-chloro-1,7-naphthyridin-2-yl)amino)cyclohexyl)methyl)amino)pyrimidin-5-yl)-1-(piperazin-1-yl)ethan-1-one], the results for the IC50 (in assay [1]; on EZH2) were 0.035 µM and 0.031 µM, respectively.
For `CN1CCN(C(=O)Cc2cnc(NC[C@H]3CC[C@H](Nc4ccc5ccnc(Cl)c5n4)CC3)nc2)CC1` [Compound C43, 2-(2-((((1,4-trans)-4-((8-chloro-1,7-naphthyridin-2-yl)amino)cyclohexyl)methyl)amino)pyrimidin-5-yl)-1-(4-methylpiperazin-1-yl)ethan-1-one], in that order: 0.057 µM and 0.067 µM.
Consider `O=C(Cc1cnc(NC[C@H]2CC[C@H](Nc3ccc4ccnc(Cl)c4n3)CC2)nc1)NC1CCC1` [Compound C44, 2-(2-((((1,4-trans)-4-((8-chloro-1,7-naphthyridin-2-yl)amino)cyclohexyl)methyl)amino)pyrimidin-5-yl)-N-cyclobutylacetamide], for which the figures for the half-inhibitory concentration (IC50) (in assay [1]; at EZH2) were 0.054 µM and 0.163 µM, respectively.
Consider `OCCc1cnc(NC[C@H]2CC[C@H](Nc3ccc4ccnc(Cl)c4n3)CC2)nc1` [Compound C46, 2-(2-((((1,4-trans)-4-((8-chloro-1,7-naphthyridin-2-yl)amino)cyclohexyl)methyl)amino)pyrimidin-5-yl)ethan-1-ol], for which the figures for the IC50 (in assay [1]; against EZH2) were 0.012 µM and 0.013 µM, respectively.
For `CC1(NCCc2cnc(NC[C@H]3CC[C@H](Nc4ccc5ccnc(Cl)c5n4)CC3)nc2)COC1` [Compound C47, 8-chloro-N-((1,4-trans)-4-(((5-(2-((3-methyloxetan-3-yl)amino)ethyl)pyrimidin-2-yl)amino)methyl)cyclohexyl)-1,7-naphthyridin-2-amine], in that order: 0.051 µM and 0.032 µM.
As for `Clc1nccc2ccc(N[C@H]3CC[C@H](CNc4ncc(CCNC5COC5)cn4)CC3)nc12` [Compound C48, 8-chloro-N-((1,4-trans)-4-(((5-(2-(oxetan-3-ylamino)ethyl)pyrimidin-2-yl)amino)methyl)cyclohexyl)-1,7-naphthyridin-2-amine], the values for the IC50 (in assay [1]; on EZH2) were 0.039 µM and 0.027 µM, respectively.
As to `CCN(CCC#N)C(=O)Cc1cnc(NC[C@H]2CC[C@H](Nc3ccc4ccnc(Cl)c4n3)CC2)nc1` [Compound C50, 2-(2-((((1,4-trans)-4-((8-chloro-1,7-naphthyridin-2-yl)amino)cyclohexyl)methyl)amino)pyrimidin-5-yl)-N-(2-cyanoethyl)-N-ethylacetamide], the IC50 in assay [1] is 0.023 µM; against EZH2, 0.027 µM.
Take `O=C(NCc1cnc(NC[C@H]2CC[C@H](Nc3ccc4ccnc(Cl)c4n3)CC2)nc1)C1CCN1` (stereo partly drawn) [Compound C58, N-((2-((((1,4-trans)-4-((8-chloro-1,7-naphthyridin-2-yl)amino)cyclohexyl)methyl)amino)pyrimidin-5-yl)methyl)azetidine-2-carboxamide]: the IC50 came to 0.038 µM in assay [1] and 0.117 µM against EZH2.
As to `O=C(NCc1cnc(NC[C@H]2CC[C@H](Nc3ccc4ccnc(Cl)c4n3)CC2)nc1)C1COC1` [Compound C59, N-((2-((((1,4-trans)-4-((8-chloro-1,7-naphthyridin-2-yl)amino)cyclohexyl)methyl)amino)pyrimidin-5-yl)methyl)oxetane-3-carboxamide], the results for the IC50 (in assay [1]; against EZH2) were 0.045 µM and 0.033 µM, respectively.
As for `CNc1nccc2ccc(N[C@H]3CC[C@H](CNc4ncc(C#N)cn4)CC3)nc12` [Compound C60, 2-((((1,4-trans)-4-((8-(methylamino)-1,7-naphthyridin-2-yl)amino)cyclohexyl)methyl)amino)pyrimidine-5-carbonitrile], the figures for the half-inhibitory concentration (IC50) (in assay [1]; on EZH2) were 0.022 µM and 0.021 µM, respectively.
Regarding `CNc1nccc2ccc(N[C@H]3CC[C@H](CNc4ncc(N)cn4)CC3)nc12` [Compound C62, N^2-((1,4-trans)-4-(((5-aminopyrimidin-2-yl)amino)methyl)cyclohexyl)-N^8-methyl-1,7-naphthyridine-2,8-diamine], the figures for the IC50 (in assay [1]; on EZH2) were 0.149 µM and 0.031 µM, respectively.
For `CNc1nccc2ccc(N[C@H]3CC[C@H](CNc4ncc(NC(C)=O)cn4)CC3)nc12` [Compound C63, N-(2-((((1,4-trans)-4-((8-(methylamino)-1,7-naphthyridin-2-yl)amino)cyclohexyl)methyl)amino)pyrimidin-5-yl)acetamide], the IC50 in assay [1] is 0.096 µM; on EZH2 it was 0.037 µM.
In the case of `O=C1OCCN1c1cnc(NC[C@H]2CC[C@H](Nc3ccc4ccnc(Cl)c4n3)CC2)nc1` [Compound C64, 3-(2-((((1,4-trans)-4-((8-chloro-1,7-naphthyridin-2-yl)amino)cyclohexyl)methyl)amino)pyrimidin-5-yl)oxazolidin-2-one], the IC50 in assay [1] was determined as 0.053 µM; at EZH2, 0.054 µM.
